Like-named read-outs stand apart in the source and are kept apart here. Where no end group is shown, it is not given here.
Key:
HLA-A0301 = target: T1, HLA-A0301 (Homo sapiens, UniProt P04439); experiment: cell-based; type: binding; settings: for inhibition at 5 µM: read-out: 5-μM inhibition (%); for inhibition at 15 µM: read-out: 15-μM inhibition (%)
T1 construct: expressed in transfected cells; host or cells: HMy2.CIR

HLA-A1101 = target: T2, HLA-A1101 (Homo sapiens, UniProt P04439, A114D/D185E/E176A/F33Y/L180Q/S129P/T187R); experiment: cell-based; type: binding
T2 construct: expressed in transfected cells; host or cells: HMy2.CIR

HLA-A1102 = HLA-A1102 (Homo sapiens, UniProt P04439, A114D/D185E/E176A/E43K/F33Y/L180Q/S129P/T187R); experiment: cell-based; type: binding; settings: A1102, 24 h, 4°C, flow cytometry
HLA-A3001 = target: T3, HLA-A3001 (Homo sapiens, UniProt P04439, D140H/D185E/E176W/F33S/G80R/H175R/K168Q/R138E/R41S); experiment: cell-based; type: binding; settings: for inhibition at 5 µM / inhibition at 15 µM: 24 h; for inhibition at 5 µM: read-out: 5-μM inhibition (%); for inhibition at 15 µM: read-out: 15-μM inhibition (%)
T3 construct: expressed in transfected cells; host or cells: HMy2.CIR

HLA-A0201 = target: T4, HLA-A0201 (Homo sapiens, UniProt P04439, D140Y/D185E/D98H/E176V/E277Q/G131W/G231S/I119V/I121R/I166T/I218V/L300P/L318F/N151K/N90K/P208A/P217A/Q86G/Q94H/R138H/R169H/T345S); experiment: cell-based; type: binding; settings: A0201, 24 h, 4°C, flow cytometry
T4 construct: expressed in transfected cells; host or cells: HMy2.CIR

HLA-A0203 = target: T5, HLA-A0203 (Homo sapiens, UniProt P04439, A173T/D140Y/D185E/D98H/E277Q/G131W/G231S/I119V/I121R/I166T/I218V/L180W/L300P/L318F/N151K/N90K/P208A/P217A/Q86G/Q94H/R138H/R169H/T345S); experiment: cell-based; type: binding
T5 construct: expressed in transfected cells; host or cells: HMy2.CIR

HLA-A0206 = target: T6, HLA-A0206 (Homo sapiens, UniProt P04439, D140Y/D185E/D98H/E176V/E277Q/F33Y/G131W/G231S/I119V/I121R/I166T/I218V/L300P/L318F/N151K/N90K/P208A/P217A/Q86G/Q94H/R138H/R169H/T345S); experiment: Peptide competitive binding assay, HMy2.CIR cells expressing A0206; settings: 24 h, 4°C, flow cytometry
T6 construct: expressed in transfected cells; host or cells: HMy2.CIR

HLA-A0101 = target: T7, HLA-A0101 (Homo sapiens, UniProt P04439, A114D/A174V/A182V/D101N/D185E/E176A/E190D/L180R/Q94H/R68K/S129P/T187R/V100A/V91M/W191G); experiment: Peptide competitive binding assay, HMy2.CIR cells expressing A0101; settings: for inhibition at 5 µM / inhibition at 15 µM: 24 h; for inhibition at 5 µM: read-out: 5-μM inhibition (%); for inhibition at 15 µM: read-out: 15-μM inhibition (%)
T7 construct: expressed in transfected cells; host or cells: HMy2.CIR

[1] = A0301, peptide 5 μM vs FITC-labeled reference peptide 300 nM, 24 h, 4°C, flow cytometry
[2] = A0301, peptide 15 μM vs FITC-labeled reference peptide 300 nM, 24 h, 4°C, flow cytometry
[3] = peptide 5 μM vs FITC-labeled reference peptide 300 nM, read-out: 5-μM inhibition (%)
[4] = peptide 15 μM vs FITC-labeled reference peptide 300 nM, read-out: 15-μM inhibition (%)
[5] = peptide 5 μM vs FITC-labeled reference peptide 300 nM
[6] = peptide 15 μM vs FITC-labeled reference peptide 300 nM
[7] = A0101, peptide 5 μM vs FITC-labeled reference peptide 300 nM, 4°C, flow cytometry
[8] = A0101, peptide 15 μM vs FITC-labeled reference peptide 300 nM, 4°C, flow cytometry

T1 sequence (P61769 21-119): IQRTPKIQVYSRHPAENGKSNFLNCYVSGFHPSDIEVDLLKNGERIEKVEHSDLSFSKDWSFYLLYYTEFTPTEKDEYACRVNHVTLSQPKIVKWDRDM
T1 sequence (P04439 25-365): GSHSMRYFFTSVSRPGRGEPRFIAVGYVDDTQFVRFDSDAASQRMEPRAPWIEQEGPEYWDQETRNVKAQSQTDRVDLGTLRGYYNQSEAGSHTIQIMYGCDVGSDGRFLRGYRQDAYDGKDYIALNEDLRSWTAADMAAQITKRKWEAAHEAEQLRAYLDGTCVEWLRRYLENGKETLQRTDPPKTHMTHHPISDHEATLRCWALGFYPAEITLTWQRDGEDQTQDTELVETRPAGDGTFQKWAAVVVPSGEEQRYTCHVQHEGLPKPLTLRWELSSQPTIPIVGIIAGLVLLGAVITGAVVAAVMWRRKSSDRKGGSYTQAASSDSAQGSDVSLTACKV

LLYWGQELK [Peptide P84]
IC50 (HLA-A0301): 5 to 15 µM | inhibition at 5 µM (HLA-A0301; [1]): 25.7% | inhibition at 15 µM (HLA-A0301; [2]): 56.2%

CC[C@H](C)[C@H](NC(=O)[C@H](C)N)C(=O)N[C@@H](Cc1ccccc1)C(=O)N[C@@H](CCC(N)=O)C(=O)N[C@@H](CO)C(=O)N[C@@H](CO)C(=O)N[C@@H](CCSC)C(=O)N[C@H](C(=O)N[C@@H](CCCCN)C(=O)O)[C@@H](C)O [Peptide P40]
IC50 (HLA-A1101): < 5 µM | inhibition at 5 µM (HLA-A1101; A1101, peptide 5 μM vs FITC-labeled reference peptide 300 nM, 24 h, 4°C, flow cytometry, read-out: 5-μM inhibition (%)): 67.9% | inhibition at 15 µM (HLA-A1101; A1101, peptide 15 μM vs FITC-labeled reference peptide 300 nM, 24 h, 4°C, flow cytometry, read-out: 15-μM inhibition (%)): 89.5% | IC50 (HLA-A0301): 5 to 15 µM | inhibition at 5 µM (HLA-A0301; 24 h): 22.4% | inhibition at 15 µM (HLA-A0301; 24 h): 50.6% | inhibition at 5 µM (HLA-A1102; [3]): 2.89% | inhibition at 15 µM (HLA-A1102; [4]): 16.1% | IC50 (HLA-A3001): < 5 µM | inhibition at 5 µM (HLA-A3001): 60.4% | inhibition at 15 µM (HLA-A3001): 67.7%

RLINCNTSV [Peptide P6]
inhibition at 5 µM (HLA-A0201; [3]): 0.13% | inhibition at 15 µM (HLA-A0201; [4]): 23.6% | IC50 (HLA-A0203): 5 to 15 µM | inhibition at 5 µM (HLA-A0203; A0203, peptide 5 μM vs FITC-labeled reference peptide 300 nM, 24 h, 4°C, flow cytometry, read-out: 5-μM inhibition (%)): 15.8% | inhibition at 15 µM (HLA-A0203; A0203, peptide 15 μM vs FITC-labeled reference peptide 300 nM, 24 h, 4°C, flow cytometry, read-out: 15-μM inhibition (%)): 70.7% | inhibition at 5 µM (HLA-A0206; [5]): 14.6% | inhibition at 15 µM (HLA-A0206; [6]): 41.8%

KLVSSGIRK [Peptide P85]
5-μM inhibition (%) (HLA-A0301; [1]): 19.14% | 15-μM inhibition (%) (HLA-A0301; [2]): 38.04%

EADGKVSQNY [Peptide P67]
IC50 (HLA-A0101): 5 to 15 µM | inhibition at 5 µM (HLA-A0101): 21.4% | inhibition at 15 µM (HLA-A0101): 62%

YSENSSEYY [Peptide P68]
IC50 (HLA-A0101; A0101, class from inhibition at 5 and 15 μM of FITC-labeled reference peptide binding, read-out: Affinity): < 5 µM | inhibition at 5 µM (HLA-A0101; [7]): 83.8% | inhibition at 15 µM (HLA-A0101; [8]): 94.2%

KLAGRWPVK [Peptide P95]
IC50 (HLA-A0301): 5 to 15 µM | inhibition at 5 µM (HLA-A0301; [1]): 28.9% | inhibition at 15 µM (HLA-A0301; [2]): 53.7% | IC50 (HLA-A3001): < 5 µM | inhibition at 5 µM (HLA-A3001; A3001, peptide 5 μM vs FITC-labeled reference peptide 300 nM, 4°C, flow cytometry): 83.7% | inhibition at 15 µM (HLA-A3001; A3001, peptide 15 μM vs FITC-labeled reference peptide 300 nM, 4°C, flow cytometry): 95.9%

VTDSQYALGI [Peptide P69]
inhibition at 5 µM (HLA-A0101; [7]): 35.6% | inhibition at 15 µM (HLA-A0101; [8]): 71.2% | IC50 (HLA-A0101; read-out: Affinity): 5 to 15 µM

KIVRMYSPV [Peptide P71]
5-μM inhibition (%) (HLA-A0206; [5]): 6.54% | 15-μM inhibition (%) (HLA-A0206; [6]): 14.21%
